According to PubChem BioAssay AID504861 (Broad Institute, 2011):
Active and inactive are the calls of the source.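 Rule for the calls: active = compounds lowering cell viability signal with fitted half-maximal concentration at most ten times their highest tested concentration; inconclusive = flat fit with 30 to 70% signal loss, or poor fit; inactive = the rest.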

Test system: HEK293T viability, CellTiter-Glo ATP luminescence, 48 h
Test: HEK293T cell viability reduction, dose response, cytotoxicity control for LMP1 NF-kB inhibitor project, CellTiter-Glo luminescence, cherry-picks (AID 504861)

Structure (SMILES) | AC50
CCc1cc2c(N3CCN(c4ccccc4)CC3)ncnc2s1 | 26.4 µM
CCC(=O)NC(c1cc(Cl)c2cccnc2c1O)C1CC1 (stereo not drawn) | 9.86 µM
CSc1ccc2c(c1)C(N1CCN(C)CC1)Cc1ccccc1S2 (stereo not drawn) | 15.4 µM
COc1ccc(O)c(/C=N/NC(=O)c2ccc(OCc3cccc(Br)c3)cc2)c1 | 4.45 µM
CCOc1ccc(OCc2cccc(C(=O)N/N=C/c3cccnc3)c2)cc1 | > 26 µM (inactive)
COc1ccc(O)c(/C=N/Nc2nc(Nc3ccccc3)nc(-n3nc(C)cc3C)n2)c1 | 7.55 µM
CC(=NNc1nc2ccccc2s1)c1ncccn1 | 13.8 µM
CCN(CC)c1ccc(C(NC(=O)C(C)C)c2ccc3cccnc3c2O)cc1 (stereo not drawn) | 4.34 µM
O=C(Nc1nc2ccc(F)cc2s1)C1=COCCO1 | 18.7 µM
CC(=O)OC1CCC2(C)C(CCC3C4CC=C(C(C)=O)C4(C)OC(=O)CC32)C1 (stereo not drawn) | 4.45 µM
CC(=O)NC(c1cccc([N+](=O)[O-])c1)c1ccc2cccnc2c1O (stereo not drawn) | 3.66 µM
O=C(CCl)N(c1ccc(Cl)cc1)c1c[nH]c2ccccc12 | 1.19 µM
C=C1C(=O)C2=CC1CCC(=O)C1(C)CCC(OC(C)=O)C(C)(C)C1CC2O (stereo not drawn) | 11.3 µM
C=CCn1c(O)c(N=NC(=S)Nc2cccc(C)c2)c2ccccc21 | > 26 µM (inactive)
CCCC(=O)NC(c1ccccc1Cl)c1ccc2cccnc2c1O (stereo not drawn) | 4.36 µM
Cc1csc(SCC(=O)c2cc(C)n(Cc3cccs3)c2C)n1 | > 26 µM (inactive)
COc1cccc(/C=N/Nc2nccnc2Cl)c1O | 3.79 µM
S=C(NCCCN1CCOCC1)N1CCN(c2nc(-c3ccc(Cl)cc3)cs2)CC1 | > 26 µM (inactive)
Cc1oc2c(c1C(=O)c1ccc(Cl)cc1)C(=O)C(=O)c1ccccc1-2 | 4.37 µM
Clc1ccc(SCc2cc(N3CCOCC3)nc(-c3ccccn3)n2)cc1 | 14.9 µM
COc1cccc(/C=N/Nc2nc3ccccc3[nH]2)c1O | 5.26 µM
C#CCn1c(S(=O)(=O)Cc2ccc(F)cc2)nc(-c2ccccc2)c1-c1ccccc1 | > 26 µM (inactive)

Structure (SMILES) | AC50
COc1ccc(C(=O)NC2CCCc3c2cnn3-c2cccc(C)c2C)c(OC)n1 (stereo not drawn) | 24.1 µM
O=C(N/N=C/c1c(O)ccc2ccccc12)c1ccc(Br)o1 | 4.46 µM
Cc1ccsc1/C=C/c1ccc2ccccc2n1 | 25.6 µM
CCN1CCN(Cc2ccc(NC(=O)c3ccc(C)c(NC(=O)c4cc(-c5ccc(Br)cc5)n[nH]4)c3)cc2C(F)(F)F)CC1 | 15.6 µM
CCCCCN=Cc1c(C)[nH]n(-c2nc3ccccc3s2)c1=O | 1.33 µM
C=CCNC(=S)N/N=C(\C)c1ccccn1 | 2.06 µM
Cc1ccc2[nH]c(C(=O)N/N=C/c3ccccc3O)c(C)c2c1 | 3.52 µM
C/C(=N\NC(=O)c1cccc(Br)c1)c1ccccn1 | 3.59 µM
C#CCN(C[C@@H]1[C@@H](OC(=O)NCCCCCC)[C@@H](OC(=O)NCCCCCC)Cn2c(=O)ccc(=O)n21)S(=O)(=O)c1ccc(C)cc1 | 4.1 µM
COc1ccc(NC2=NCC(Cc3ccc(Br)cc3)S2)cc1 (stereo not drawn) | 26.2 µM
CC(=NNC(=S)N1CCCCCC1)c1ccccn1 | 2.18 µM
CC(=O)NC(c1cccs1)c1cc(F)c2cccnc2c1O (stereo not drawn) | 4.67 µM
CCc1nc(SCC(=O)c2ccc3c(c2)OCCO3)c2ccccc2n1 | > 26 µM (inactive)
CCN(CC)CCC(=O)N1C/C(=C/c2ccccc2)C(=O)/C(=C\c2ccccc2)C1 | 3.88 µM
CC(C)C(=O)NC(c1cccc([N+](=O)[O-])c1)c1ccc2cccnc2c1O (stereo not drawn) | 4.33 µM
COc1ccc(C(=O)Nn2c(SCC(=O)NC3CCCCC3)nc3ccccc3c2=O)cc1 | > 26 µM (inactive)
COc1ccc(/C=N/Nc2cc(C)nc3ccc(OC)cc23)c(OC)c1 | 5.04 µM
O=C1c2ccccc2C(Nc2ccc(Cl)cc2)N1CCN1CCOCC1 (stereo not drawn) | > 26 µM (inactive)
O=C(N/N=C/c1c(O)ccc2ccccc12)c1cccnc1 | 8.72 µM
CCCC(=O)NC(c1ccc(C)cc1)c1ccc2cccnc2c1O (stereo not drawn) | 4.45 µM
C/C(=N/NC(=O)c1ccc(C(C)(C)C)cc1)c1ccccn1 | 3.38 µM
